According to patent US20080153888A1, “ALPHA-2-DELTA LIGAND/NSAID THERAPEUTIC TREATMENT OF LOWER URINARY TRACT DISORDERS” (Recordati Ireland Limited, priority 2006, published 2008):

Test system: anesthetized rats with acetic acid bladder infusion (animal model of overactive bladder)
Test: Cystometry in anesthetized rats with acetic acid bladder infusion;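 note: Single-filling cystometrograms via bladder-dome catheter, basal values taken after 60 min saline infusion, BVC as mL infused until micturition, MP as peak intravesical pressure (mm Hg)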
Assay type: in vivo, rat
Conditions: for % Bladder Volume Capacity (vs basal) ± S.E. / ED60 (CL 95%) of recovery of Bladder Volume Capacity to basal value: single drug; for % Bladder Volume Capacity (vs basal) ± S.E.: cumulative administration; for ED60 (CL 95%) of recovery of Bladder Volume Capacity to basal value: i.v., cumulative dose-response
Protocol: Female rats (225-250 g body weight) were anesthetized with urethane (1.25 g/kg s.c.) and a catheter (PE-50, 0.58 mm I.D.×0.96 mm O.D.) was inserted into the jugular vein for intravenous drug administration. A midline lower abdominal incision was made and a second PE-50 catheter was inserted into the bladder dome for bladder filling and pressure recording, and the incision was sutured.
Dosages were administered by injection in a volume of 1 ml per kg body weight.
a) Saline was continuously infused at a rate of 0.055 ml/min by mean of a peristaltic pump via the bladder-filling catheter for 60 minutes to obtain a baseline of bladder activity. Then the infusion pump was stopped and the bladder was emptied of residual fluid by capillarity via the infusion catheter. After this procedure, a single filling cystometrogram was performed in order to determine the two urodynamic parameters: bladder volume capacity (BVC) and micturition pressure (MP) (BVC and MP BASAL VALUES).
After 30 minutes of acetic acid infusion, 3 vehicle injections were made at 20 minute intervals. Then the infusion pump was stopped, the bladder was emptied and a single filling cystometrogram was recorded as reported before (BVC and MP VALUES AFTER IRRITATION).
This procedure was repeated for three times in order to follow a cumulative dose-response protocol.
BVC is defined as the volume (mL) of fluid (saline or dilute acetic acid) infused in the bladder necessary to induce detrusor contractions followed by micturition. MP is defined as the maximal intravesical pressure (mm Hg) determined by the contraction of the detrusor during micturition.
Changes in bladder capacity for each animal were expressed as “% bladder volume capacity vs. basal (saline infusion)” and an increase in this index was used as measure of efficacy (recovery from irritation to basal value).

Structure (SMILES)	% Bladder Volume Capacity (vs basal) ± S.E. (dose 0.3 mg/kg i.v.) [%]	% Bladder Volume Capacity (vs basal) ± S.E. (dose 1.0 mg/kg i.v.) [%]	% Bladder Volume Capacity (vs basal) ± S.E. (dose 3 mg/kg i.v.) [%]	ED60 (CL 95%) of recovery of Bladder Volume Capacity to basal value	% Bladder Volume Capacity (vs basal) ± S.E. (dose 0.1 mg/kg i.v.) [%]	% Bladder Volume Capacity (vs basal) ± S.E. (dose 3 mg/kg i.v., 3 mg/kg) [%]	% Bladder Volume Capacity (vs basal) ± S.E. (dose 10 mg/kg i.v.) [%]	% Bladder Volume Capacity (vs basal) ± S.E. (dose 30 mg/kg i.v.) [%]	% Bladder Volume Capacity (vs basal) ± S.E. (dose 60 mg/kg i.v.) [%]	% Bladder Volume Capacity (vs basal) ± S.E. (dose 100 mg/kg i.v.) [%]	% Bladder Volume Capacity (vs basal) ± S.E. (dose 300 mg/kg i.v.) [%]	micturition pressure (MP) (after increase of MP induced by acetic acid infusion, data not shown)
O=C(O)Cc1ccccc1Nc1c(Cl)cccc1Cl [Diclofenac, diclofenac]	41 ± 10	63 ± 13	82 ± 15	0.85 (0.80-0.90)								
CC(C(=O)O)c1ccc(-c2ccccc2)c(F)c1 (stereo not shown) [Flurbiprofen, flurbiprofen]	42 ± 6	49 ± 9		2.34 (nc-4.77)	43 ± 11	62 ± 10	73 ± 12					
NCC1(CC(=O)O)CCCCC1 [Gabapentin]				112 (75-149)				27 ± 4	51 ± 15	55 ± 9	82 ± 12	
CS(=O)(=O)Nc1ccc([N+](=O)[O-])cc1Oc1ccccc1 [Nimesulide]	38 ± 10	36 ± 12	37 ± 7	>>10			47 ± 15					
CC(C)C[C@H](CN)CC(=O)O [Pregabalin, pregabalin]				300.5 (n.c.-n.c.)			31 ± 6	35 ± 6		52 ± 8		recovered to basal values
CC1=C(CC(=O)O)c2cc(F)ccc2/C1=C\c1ccc([S+](C)[O-])cc1 (stereo not shown) [Sulindac, sulindac]	27 ± 5	39 ± 11	34 ± 8	>30			38 ± 4	54 ± 8				
